{
  "source": "patent US20190177279A1",
  "about": "“CARBOXYLIC ACID AROMATIC 1,2-CYCLOPROPYLAMIDES” (Bayer Pharma Aktiengesellschaft, priority 2017, published 2019)",
  "format_in_all_cases": "cell-based",
  "key": {"[1]": {"system": "IL-8 secretion", "assay": "Bradykinin B1 receptor agonist-induced secretion of IL-8 in human IMR-90 cells", "conditions": "0.1 μM Lys-[Des-Arg9]Bradykinin and 0.1 μM Sar-[D-Phe8]-des-Arg9-Bradykinin, 5 hours", "excerpt": "(§1) Inhibitory Activity on Bradykinin B1 Receptor Agonist-Induced Secretion of IL-6 and IL-8 in Human IMR-90 Cells\n(§2) The effect of the compound examples on secretion of the cytokine IL-6 and IL-8 was investigated in the human foetal lung fibroblast IMR-90 cell line. Here the induction of the cytokine secretion was induced by the Bradykinin B1 receptor agonists Lys-[Des-Arg9]Bradykinin (CAS 71800-36-7, Tocris Bioscience) and Sar-[D-Phe8]-des-Arg9-Bradykinin (CAS 126959-88-4, Tocris Bioscience) leading to the activation of the Bradykinin B1-driven signalling pathway. […]\n(§3) IMR-90 cells were cultured in Eagle's Minimum Essential Medium (EMEM) containing 2 mM L-glutamine, 1 g/L glucose, 1.5 g/L NaHCO3, 1 mM sodium pyruvate and non-essential amino acids (ATCC, 30-2003™) supplemented with 10% FBS (Biochrom, 50615) and 50 U/mL Penicillin, 50 μg/mL Streptomycin (PAA, P11-010). […] The compound examples were serially diluted in 100% DMSO and evaluated at 8 different concentrations within the range of 3 nM and 10 μM and a final DMSO concentration of 0.4%. […] The amount of IL-6 and IL-8 in the supernatant was determined using the Human ProInflammatory Panel II (4-Plex) (MSD, K15025B) according to manufacturer's instruction. […] The cell viability was measured using the CellTiter-Glo Luminescent Assay (Promega, G7571) following the manufacturers protocol. […]"}, "[2]": {"system": "IL-6 secretion", "assay": "Bradykinin B1 receptor agonist-induced secretion of IL-6 in human IMR-90 cells", "conditions": "0.1 μM Lys-[Des-Arg9]Bradykinin and 0.1 μM Sar-[D-Phe8]-des-Arg9-Bradykinin, 5 hours", "excerpt": "as §1, §2, §3"}, "[3]": {"target": "T1, native human B1 receptors (Homo sapiens, UniProt P46663)", "T1 construct": "which express native human B1 receptors after induction with human IL-1; Coriell Institute; host or cells: IMR-90 human foetal lung fibroblasts, induced with human IL-1", "T1 sequence (P46663 1-353)": "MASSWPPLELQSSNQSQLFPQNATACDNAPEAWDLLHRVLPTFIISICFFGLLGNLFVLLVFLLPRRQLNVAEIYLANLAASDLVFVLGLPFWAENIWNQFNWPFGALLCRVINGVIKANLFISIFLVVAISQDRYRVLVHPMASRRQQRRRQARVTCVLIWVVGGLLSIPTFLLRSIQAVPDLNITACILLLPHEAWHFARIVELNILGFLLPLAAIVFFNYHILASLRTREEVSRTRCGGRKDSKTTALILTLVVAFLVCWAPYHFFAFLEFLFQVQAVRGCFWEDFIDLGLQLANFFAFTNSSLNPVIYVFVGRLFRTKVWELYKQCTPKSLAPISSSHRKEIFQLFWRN", "assay": "Calcium flux assay (FLIPR) with IMR-90 human foetal lung fibroblasts after IL-1 induction", "conditions": "IMR-90 fibroblasts induced with human IL-1; 0.1% BSA in assay buffer; agonist Lys-(Des-Arg)-Bradykinin at EC90; read-out: hB1 IC50 IMR90", "procedure": "Calcium Flux Assay (FLIPR) with Human Fibroblasts for Bradykinin B1 Receptor Antagonist (hB1 IMR-90 IC50)\nThe Calcium flux Assay was carried out utilising IMR-90 human foetal lung fibroblasts (American Type Culture Collection, Rockville, Md.; and Coriell Institute, Camden, N.J.), which express native human B1 receptors after induction with human IL-1[…].\nThe fibroblasts were cultured in complete growth media comprised of Dulbecco's modified Eagle's medium (DMEM; Sigma) containing 10% foetal bovine serum, 4 mM L-glutamine, and 1% nonessential amino acids. The cells were maintained in a humidified atmosphere with 5% CO2 at 37° C. and were sub-cultured at a ratio of 1:3, every other day.\nFor the assay, IMR-90 fibroblasts were harvested using TrypLE Express (GIBCO/Invitrogen) and seeded into 384-well plates (Corning Cellbinding Surface, Cat. 3683) at a density of 15000 cells/well. The following day, cells were treated with 0.35 ng/mL human IL-1[…] in 10% FBS/MEM for 3 h to up-regulate B1 receptors. Induced cells were loaded with fluorescent calcium indicator by incubation with 2.5 μM Fluo-4/AM (Invitrogen) at 37° C., 5% CO2 for 2 h in the presence of 2.5 mM probenecid in 1% FBS/MEM. Extracellular dye was removed by washing with assay buffer (2.5 mM probenecid and 0.1% BSA in 20 mM HEPES/HBSS without bicarbonate or phenol red, pH 7.5). Example compounds were assayed at 8 concentrations in triplicate. After addition of example compounds to the cell plate and incubation for 30 min at 28° C., the addition of B1 agonist Lys-(Des-Arg)-Bradykinin (Bachem, Brackley) at a final concentration of EC90 was carried out on the FLIPR instrument while continuously monitoring Ca^2+-dependent fluorescence at 538 nm. A peptide antagonist Lys-(Des-Arg-Leu)-Bradykinin (Bachem, Brackley) at 20 μM was used to determine the full inhibition as control. IC50 values were determined by the same way described for the FLIPR assay with recombinant cells."}},
  "data": [
    {"compound": "O=C(O)c1cc(NC(=O)C2CC2c2ccc(Cl)cc2)cc(F)c1-c1cnn(C2CCC2)c1", "note": "(racemic) [Example 2, 5-({[2-(4-chlorophenyl)cyclopropyl]carbonyl}amino)-2-(1-cyclobutyl-1H-pyrazol-4-yl)-3-fluorobenzoic acid]", "values": [
      {"measurement": "IC50", "setting": "[1]", "value": 185, "unit": "nM"},
      {"measurement": "IC50", "setting": "[2]", "value": 322, "unit": "nM"},
      {"measurement": "IC50", "setting": "[3]", "value": 66, "unit": "nM"}
    ]}
  ]
}
